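Method: 48-hour compound exposure of cells in 96-well plates, five concentrations, linear interpolation of endpoints. Abbreviation: GI50, concentration required for 50% inhibition of growth. TGI: total growth inhibition.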
What was measured:
Test in all cases: NCI-60 cell line screen, 48 h; in the data active means GI50 below about 0.43 µM; inactive means the rest
786-0 renal = test system: 786-0 renal
A498 renal = test system: A498 renal
A549 NSCLC = test system: A549 NSCLC
ACHN renal = test system: ACHN renal
BT-549 breast = test system: BT-549 breast
CAKI-1 renal = test system: CAKI-1 renal
CCRF-CEM leukemia = test system: CCRF-CEM leukemia
COLO 205 colon = test system: COLO 205 colon
DU-145 prostate = test system: DU-145 prostate
EKVX NSCLC = test system: EKVX NSCLC
HCC-2998 colon = test system: HCC-2998 colon
HCT-116 colon = test system: HCT-116 colon
HCT-15 colon = test system: HCT-15 colon
HL-60(TB) leukemia = test system: HL-60(TB) leukemia
HOP-62 NSCLC = test system: HOP-62 NSCLC
HOP-92 NSCLC = test system: HOP-92 NSCLC
HS 578T breast = test system: HS 578T breast
HT29 colon = test system: HT29 colon
IGROV1 ovarian = test system: IGROV1 ovarian
K-562 leukemia = test system: K-562 leukemia
KM12 colon = test system: KM12 colon
LOX IMVI melanoma = test system: LOX IMVI melanoma
M14 melanoma = test system: M14 melanoma
MALME-3M melanoma = test system: MALME-3M melanoma
MCF7 breast = test system: MCF7 breast
MDA-MB-231 breast = test system: MDA-MB-231 breast
MOLT-4 leukemia = test system: MOLT-4 leukemia
NCI-H226 lung = test system: NCI-H226 lung
NCI-H23 lung = test system: NCI-H23 lung
NCI-H460 lung = test system: NCI-H460 lung
NCI-H522 lung = test system: NCI-H522 lung
NCI/ADR-RES ovarian = test system: NCI/ADR-RES ovarian
OVCAR-4 ovarian = test system: OVCAR-4 ovarian
OVCAR-5 ovarian = test system: OVCAR-5 ovarian
OVCAR-8 ovarian = test system: OVCAR-8 ovarian
PC-3 prostate = test system: PC-3 prostate
RPMI-8226 leukemia = test system: RPMI-8226 leukemia
RXF 393 renal = test system: RXF 393 renal
SF-268 CNS = test system: SF-268 CNS
SF-295 CNS = test system: SF-295 CNS
SF-539 CNS = test system: SF-539 CNS
SK-MEL-2 melanoma = test system: SK-MEL-2 melanoma
SK-MEL-28 melanoma = test system: SK-MEL-28 melanoma
SK-MEL-5 melanoma = test system: SK-MEL-5 melanoma
SK-OV-3 ovarian = test system: SK-OV-3 ovarian
SN12C renal = test system: SN12C renal
SNB-19 CNS = test system: SNB-19 CNS
SNB-75 CNS = test system: SNB-75 CNS
SR leukemia = test system: SR leukemia
SW-620 colon = test system: SW-620 colon
T-47D breast = test system: T-47D breast
TK-10 renal = test system: TK-10 renal
U251 CNS = test system: U251 CNS
UACC-257 melanoma = test system: UACC-257 melanoma
UACC-62 melanoma = test system: UACC-62 melanoma
UO-31 renal = test system: UO-31 renal
MDA-MB-435 = test system: MDA-MB-435
OVCAR-3 ovarian = test system: OVCAR-3 ovarian

COc1ccc(C(=O)c2cc3c(N)c(C(=O)Nc4cccc(OC)c4)sc3nc2C)cc1
2.59 µM: TGI (SF-539 CNS)
active: GI50 (A498 renal) 0.393 µM | GI50 (CCRF-CEM leukemia) 0.363 µM | GI50 (HCT-116 colon) 0.368 µM | GI50 (HL-60(TB) leukemia) 0.311 µM | GI50 (K-562 leukemia) 0.378 µM | GI50 (M14 melanoma) 0.341 µM | GI50 (MCF7 breast) 0.42 µM | GI50 (RPMI-8226 leukemia) 0.39 µM | GI50 (RXF 393 renal) 0.323 µM | GI50 (SF-539 CNS) 0.372 µM | GI50 (SR leukemia) 0.203 µM
> 100 µM: TGI (786-0 renal) | TGI (A549 NSCLC) | TGI (ACHN renal) | TGI (BT-549 breast) | TGI (CAKI-1 renal) | TGI (CCRF-CEM leukemia) | TGI (DU-145 prostate) | TGI (EKVX NSCLC) | TGI (HCC-2998 colon) | TGI (HCT-116 colon) | TGI (HCT-15 colon) | TGI (HOP-62 NSCLC) | TGI (HOP-92 NSCLC) | TGI (HS 578T breast) | TGI (HT29 colon) | TGI (IGROV1 ovarian) | TGI (K-562 leukemia) | TGI (KM12 colon) | TGI (LOX IMVI melanoma) | TGI (M14 melanoma) | TGI (MALME-3M melanoma) | TGI (MCF7 breast) | TGI (MDA-MB-231 breast) | TGI (MOLT-4 leukemia) | TGI (NCI-H226 lung) | TGI (NCI-H23 lung) | TGI (NCI-H460 lung) | TGI (NCI-H522 lung) | TGI (NCI/ADR-RES ovarian) | TGI (OVCAR-4 ovarian) | TGI (OVCAR-5 ovarian) | TGI (OVCAR-8 ovarian) | TGI (PC-3 prostate) | TGI (SF-268 CNS) | TGI (SF-295 CNS) | TGI (SK-MEL-2 melanoma) | TGI (SK-MEL-28 melanoma) | TGI (SK-OV-3 ovarian) | TGI (SN12C renal) | TGI (SNB-19 CNS) | TGI (SNB-75 CNS) | TGI (SW-620 colon) | TGI (T-47D breast) | TGI (TK-10 renal) | TGI (U251 CNS) | TGI (UACC-257 melanoma) | TGI (UACC-62 melanoma) | TGI (UO-31 renal)
> 59 µM: TGI (COLO 205 colon)
> 46.1 µM: TGI (SK-MEL-5 melanoma)
1.52 µM: TGI (HL-60(TB) leukemia)
inactive: GI50 (786-0 renal) 0.713 µM | GI50 (A549 NSCLC) 0.753 µM | GI50 (ACHN renal) 0.853 µM | GI50 (BT-549 breast) 1.67 µM | GI50 (CAKI-1 renal) 0.694 µM | GI50 (COLO 205 colon) 1 µM | GI50 (DU-145 prostate) 0.523 µM | GI50 (EKVX NSCLC) 0.997 µM | GI50 (HCC-2998 colon) 2.2 µM | GI50 (HCT-15 colon) 0.479 µM | GI50 (HOP-92 NSCLC) 2.39 µM | GI50 (HS 578T breast) 0.546 µM | GI50 (HT29 colon) 0.472 µM | GI50 (IGROV1 ovarian) 0.724 µM | GI50 (KM12 colon) 0.568 µM | GI50 (LOX IMVI melanoma) 0.676 µM | GI50 (MALME-3M melanoma) 0.593 µM | GI50 (MDA-MB-231 breast) 1.47 µM | GI50 (MOLT-4 leukemia) 0.745 µM | GI50 (NCI-H226 lung) 2.99 µM | GI50 (NCI-H23 lung) 1.7 µM | GI50 (NCI-H460 lung) 0.741 µM | GI50 (NCI-H522 lung) 1.19 µM | GI50 (NCI/ADR-RES ovarian) 0.515 µM | GI50 (OVCAR-4 ovarian) 3.01 µM | GI50 (OVCAR-5 ovarian) 1.54 µM | GI50 (OVCAR-8 ovarian) 1.75 µM | GI50 (PC-3 prostate) 0.439 µM | GI50 (SF-268 CNS) 1.75 µM | GI50 (SF-295 CNS) 0.601 µM | GI50 (SK-MEL-2 melanoma) > 100 µM | GI50 (SK-MEL-28 melanoma) > 100 µM | GI50 (SK-MEL-5 melanoma) 0.643 µM | GI50 (SN12C renal) 0.867 µM | GI50 (SNB-19 CNS) 0.513 µM | GI50 (SNB-75 CNS) 0.541 µM | GI50 (SW-620 colon) 0.446 µM | GI50 (T-47D breast) 4.7 µM | GI50 (TK-10 renal) > 100 µM | GI50 (U251 CNS) 0.55 µM | GI50 (UACC-257 melanoma) > 100 µM | GI50 (UACC-62 melanoma) 0.594 µM | GI50 (UO-31 renal) 1.14 µM

NS(=O)(=O)c1ccc(NC(=O)c2cccc(NC3=C(Cl)C(=O)N(Cc4ccccc4)C3=O)c2)cc1
85.8 µM: TGI (COLO 205 colon)
7.99 µM: TGI (MOLT-4 leukemia)
25.6 µM: TGI (NCI-H460 lung)
30.9 µM: TGI (NCI-H522 lung)
23.7 µM: TGI (A498 renal)
31.4 µM: TGI (TK-10 renal)
19.2 µM: TGI (IGROV1 ovarian)
27 µM: TGI (OVCAR-3 ovarian)
52.3 µM: TGI (A549 NSCLC)
45.3 µM: TGI (SNB-75 CNS)
37 µM: TGI (MDA-MB-231 breast)
21.3 µM: TGI (BT-549 breast)
> 100 µM: TGI (786-0 renal) | TGI (HOP-62 NSCLC) | TGI (HT29 colon) | TGI (OVCAR-4 ovarian) | TGI (SNB-19 CNS) | TGI (T-47D breast)
8.17 µM: TGI (CCRF-CEM leukemia)
22.9 µM: TGI (UACC-62 melanoma)
6.4 µM: TGI (UO-31 renal)
42.9 µM: TGI (SK-MEL-28 melanoma)
44.4 µM: TGI (SW-620 colon)
32.4 µM: TGI (SF-268 CNS)
41.8 µM: TGI (OVCAR-8 ovarian)
19.6 µM: TGI (U251 CNS)
22.5 µM: TGI (SF-295 CNS)
6.01 µM: TGI (HL-60(TB) leukemia)
26.5 µM: TGI (KM12 colon)
38.7 µM: TGI (M14 melanoma)
active: GI50 (SR leukemia) 0.323 µM
inactive: GI50 (786-0 renal) 21.5 µM | GI50 (A498 renal) 9.25 µM | GI50 (A549 NSCLC) 21.2 µM | GI50 (ACHN renal) 14.7 µM | GI50 (BT-549 breast) 5.31 µM | GI50 (CAKI-1 renal) 12.5 µM | GI50 (CCRF-CEM leukemia) 2.82 µM | GI50 (COLO 205 colon) 22.6 µM | GI50 (DU-145 prostate) 11.1 µM | GI50 (EKVX NSCLC) 17.6 µM | GI50 (HCT-116 colon) 13.9 µM | GI50 (HCT-15 colon) 15.1 µM | GI50 (HL-60(TB) leukemia) 2.02 µM | GI50 (HOP-62 NSCLC) 31.5 µM | GI50 (HOP-92 NSCLC) 8.09 µM | GI50 (HS 578T breast) 7.92 µM | GI50 (HT29 colon) 33.3 µM | GI50 (IGROV1 ovarian) 4.78 µM | GI50 (K-562 leukemia) 2.27 µM | GI50 (KM12 colon) 6.83 µM | GI50 (LOX IMVI melanoma) 3.54 µM | GI50 (M14 melanoma) 15.8 µM | GI50 (MCF7 breast) 3.61 µM | GI50 (MDA-MB-231 breast) 6.93 µM | GI50 (MDA-MB-435) 8.63 µM | GI50 (MOLT-4 leukemia) 2.09 µM | GI50 (NCI-H226 lung) 8.33 µM | GI50 (NCI-H460 lung) 10.5 µM | GI50 (NCI-H522 lung) 12.1 µM | GI50 (OVCAR-3 ovarian) 12.4 µM | GI50 (OVCAR-4 ovarian) 35.7 µM | GI50 (OVCAR-8 ovarian) 12.3 µM | GI50 (PC-3 prostate) 6.57 µM | GI50 (RPMI-8226 leukemia) 3.51 µM | GI50 (RXF 393 renal) 10.6 µM | GI50 (SF-268 CNS) 11.7 µM | GI50 (SF-295 CNS) 5.59 µM | GI50 (SF-539 CNS) 11.3 µM | GI50 (SK-MEL-2 melanoma) 10.3 µM | GI50 (SK-MEL-28 melanoma) 20 µM | GI50 (SK-MEL-5 melanoma) 7.87 µM | GI50 (SK-OV-3 ovarian) 26.9 µM | GI50 (SN12C renal) 11.6 µM | GI50 (SNB-19 CNS) 27.1 µM | GI50 (SNB-75 CNS) 19.4 µM | GI50 (SW-620 colon) 6.1 µM | GI50 (T-47D breast) 33.7 µM | GI50 (TK-10 renal) 15.2 µM | GI50 (U251 CNS) 5.18 µM | GI50 (UACC-257 melanoma) 14.7 µM | GI50 (UACC-62 melanoma) 9.05 µM | GI50 (UO-31 renal) 2.27 µM
16.1 µM: TGI (LOX IMVI melanoma)
33.9 µM: TGI (RXF 393 renal)
77.5 µM: TGI (SK-OV-3 ovarian)
43.4 µM: TGI (HCT-116 colon)
29.4 µM: TGI (UACC-257 melanoma)
14.6 µM: TGI (MCF7 breast)
14.7 µM: TGI (RPMI-8226 leukemia)
1.73 µM: TGI (SR leukemia)
36.7 µM: TGI (HS 578T breast)
25.1 µM: TGI (DU-145 prostate)
25.9 µM: TGI (CAKI-1 renal) | TGI (SN12C renal)
6.09 µM: TGI (K-562 leukemia)
33.2 µM: TGI (ACHN renal) | TGI (SK-MEL-2 melanoma)
29 µM: TGI (PC-3 prostate)
31.1 µM: TGI (HOP-92 NSCLC)
38.8 µM: TGI (EKVX NSCLC) | TGI (HCT-15 colon)
46.2 µM: TGI (NCI-H226 lung)
24.1 µM: TGI (MDA-MB-435) | TGI (SK-MEL-5 melanoma)
26.7 µM: TGI (SF-539 CNS)
